Measurements: US20230082968A1, “EXOGENOUS NITRIC OXIDE FOR IMPROVED SUSCEPTIBILITY AND LOWERED ANTIBIOTIC RESISTANCE IN RESISTANT RESPIRATORY BACTERIA” (The University of North Carolina at Chapel Hill, priority 2020, published 2023)
Converted amounts (≈) assume the structure as drawn. “Also recorded” adds a separate entry of the source.

What was measured:
P. aeruginosa biofilms = assay: Biofilm pretreatment with nitric oxide, all tested biofilms; type: cell-based; conditions: all tested P. aeruginosa biofilms incl. tobramycin-resistant strains, COS/NO at 25% MBEC for 4 h
Description: Bacteria were cultured to a concentration of 10^8 CFU/mL in TSB and diluted to 10^6 CFU/mL in 200 µL TSB in a 96 well plate. Plates were incubated with shaking for 3 days until a non-surface attached viscous aggregate formed that was easily separated from growth medium. Biofilms (100 µL) were removed, gently injected into PBS (200 µL) to remove loosely adhered planktonic cells, and added to a sterile 96 well plate. To the wells, PBS or test agent dissolved in PBS (100 µL) was added and incubated with shaking for 24 h. The biofilm (100 µL) was removed from the well plate, added to 900 µL sterile MilliQ water, and disrupted with pipetting and vortexing. Disrupted biofilms were serially diluted and spiral plated on TSA. Viability was assessed with colony counting. The minimum biofilm eradication concentration (MBEC) was defined as the lowest concentration of test agent required to reduce viability by 5-log (i.e., 10^8 to 10^3 CFU/mL).
The biofilm was then removed from its 96 well plate, added to a new 96 well plate containing tobramycin dissolved in PBS (100 µL), and incubated for 20 h. The biofilm was disrupted in 900 µL sterile MilliQ water with pipetting and vortexing, serially diluted, and spiral plated on TSA. Viability was assessed with colony counting.

ATCC MRSA = assay: Serial passaging resistance assay; type: cell-based, Methicillin-resistant S. aureus
Description: Bacteria at a final concentration of 10^6 CFU/mL in TSB were incubated with serial dilutions of COS/NO and/or tobramycin for 24 h. Growth was assessed by measuring absorbance at 600 nm. The wells that had the highest concentration of test agent and an OD600 corresponding to more than 10^8 CFU/mL were diluted to 10^6 cfu/mL in TSB and incubated with fresh solutions of COS/NO or tobramycin for 24 h. A single passage was defined as one exposure, incubation, and subsequent dilution. Bacteria were passaged for up to 70 days.

AR 230 = assay: Nitric oxide pretreatment with planktonic bacteria; type: cell-based, P. aeruginosa; conditions: AR 230, antibiotic 2000 µg/mL, NO-pretreatment 25% MIC 4 h
Description: (§1) After exposure, wells were serially diluted in sterile MilliQ water and spiral plated on TSA. Viability was assessed by colony counting.

AR 229 = assay: Nitric oxide pretreatment with planktonic bacteria; type: cell-based, P. aeruginosa; conditions: AR 229, antibiotic 0.625 µg/mL, NO-pretreatment 25% MIC 4 h
Description: as §1

AR 239 = assay: Nitric oxide pretreatment with planktonic bacteria; type: cell-based, P. aeruginosa; conditions: AR 239, antibiotic 2000 µg/mL, NO-pretreatment 25% MIC 4 h
Description: as §1

AR 237 = assay: Nitric oxide pretreatment with planktonic bacteria; type: cell-based, P. aeruginosa; conditions: AR 237, antibiotic 0.625 µg/mL, NO-pretreatment 25% MIC 4 h
Description: as §1

AR 542 = assay: Nitric oxide pretreatment with planktonic bacteria; type: cell-based, Klebsiella pneumoniae
Description: as §1

[1] = system: P. aeruginosa strain K (PAK); assay: Checkerboard assay of antibiotic combinations with COS/NO; type: cell-based, Pseudomonas aeruginosa; conditions: antibiotic in combination with COS/NO, 24 h
Description: Frozen stocks of bacteria were reconstituted in TSB (3 mL) and cultured overnight. The overnight cultures of bacteria (3 mL) were inoculated into fresh TSB (30 mL) and grown to 10^8 CFU/mL. […] Inhibition was assessed with the resazurin assay and the minimum inhibitory concentration (MIC) was defined as the lowest concentration of antibacterial agent required to prevent the reduction of resazurin (i.e., color change from blue to pink).
Mol. Pharm. 7, 2289-2296 (2010)]. Briefly, bacteria at a final concentration of 10^6 CFU/mL were incubated with an array of antimicrobial combinations in TSB for 24 h at 37° C. The highest concentration for each antimicrobial tested was 2 × MIC. […] The fractional […] concentration index (ΣFIC) was calculated using Equation 1, reported by Elion et al. [Elion, G. B., Singer, S. & Hitchings, G. H. Antagonists of Nucleic Acid Derivatives: VIII. Synergism in combinations of biochemically related antimetabolites. […] Checkerboard assays were conducted in at least duplicate for each bacterial strain and for each drug combination.
Characterization of the combinations was performed using the following criteria based on ΣFIC values: < 0.25 is highly synergistic; ≤ 0.5 is synergistic; ≤ 1 is additive; ≤ 4 is indifferent; > 4 is antagonistic.

[2] = AR 542, antibiotic 500 µg/mL, NO-pretreatment 25% MIC 4 h

NC[C@H]1O[C@H](O[C@H]2[C@H](O)[C@@H](O[C@H]3O[C@H](CO)[C@@H](O)[C@H](N)[C@H]3O)[C@H](N)C[C@@H]2N)[C@H](N)C[C@@H]1O [Tobramycin]
tobramycin susceptibility of biofilms after NO-pretreatment (P. aeruginosa biofilms): significantly more susceptible; also recorded: improved | MICn (ATCC MRSA; ATCC MRSA, after n = 10 passages): 16000 µg/mL | development of tobramycin-resistance (ATCC MRSA; MRSA, concomitant delivery with COS/NO at 25% of its MIC): slowing or prevention | change of tobramycin MIC on parallel exposures (ATCC MRSA; MRSA, tobramycin alone, serial passages): increases | MIC (ATCC MRSA; Staphylococcus aureus, MRSA, read-out: MIC0): 2000 µg/mL (≈ 4.28 mM) | Classification (AR 230): Synergistic | Log Difference in bacteria viability with vs without NO-pretreatment (AR 230): 3.54 log | Classification (AR 229): Synergistic | Log Difference in bacteria viability with vs without NO-pretreatment (AR 229): 4.08 log | Classification (AR 239): Synergistic | Log Difference in bacteria viability with vs without NO-pretreatment (AR 239): 2.27 log | Classification (AR 237): Synergistic | Log Difference in bacteria viability with vs without NO-pretreatment (AR 237): 3.70 log | Classification (AR 542; [2]): Synergistic | Log Difference in bacteria viability with vs without NO-pretreatment (AR 542; [2]): 2.29 log | tobramycin-susceptibility with the addition of NO (AR 542; K. pneumoniae AR 542, NO-pretreatment): significant improvement | Classification (ΣFIC) [1]: Additive | ΣFIC (median fractional inhibitory concentration index) [1]: 0.625
